Laboratory results as given in the NIST ThermoML archive (doi:10.1021/je500332k).
± gives the expanded uncertainty stated by the source.

Assays:
[1] = refractive index (Na D-line) (dimensionless); settings: 298.2 K; 101.33 kPa; Liquid; Standard Abbe refractometry
[2] = Boiling temperature at pressure P; settings: 101.33 kPa; Liquid; Distillation
[3] = 298.2 K; 101.33 kPa; Liquid; Vibrating tube method

refractive index [1] | Boiling temperature at pressure P [2] [°C] | mass density [3] [kg/m3] | SMILES
1.3324 ± 0.0003 | 100.1 ± 0.3 |  | O [water]
1.3713 ± 0.0003 | 118.1 ± 0.3 | 1049.42 ± 0.26 | CC(=O)O [acetic acid]
1.3685 ± 0.0004 | 90.08 ± 0.29 | 1061.9 ± 0.38 | COC(=O)OC [dimethyl carbonate]
